Test results reported in ChEMBL document CHEMBL3046244, “Efficient synthesis of piperazine-2,6-dione and 4-(1H-indole-2-carbonyl)piperazine-2,6-dione derivatives and their evaluation for anticancer activity” (2013).

Assays:
Format in all cases: functional
[1] = system: NCI-H522; test: Growth inhibition of Homo sapiens (human) NCI-H522 cells at 10 uM after 48 hr by SRB assay; settings: NCI-H522, 48 h, read-out: GI
[2] = system: PA-1; test: Growth inhibition of Homo sapiens (human) PA1 cells at 10 uM after 48 hr by SRB assay; settings: PA-1, 48 h, read-out: GI
[3] = system: HepG2; test: Growth inhibition of Homo sapiens (human) HepG2 cells at 10 uM after 48 hr by SRB assay; settings: HepG2, 48 h, read-out: GI
[4] = system: HCT-15; test: Growth inhibition of Homo sapiens (human) HCT15 cells at 10 uM after 48 hr by SRB assay; settings: HCT-15, 48 h, read-out: GI
[5] = system: T47D; test: Growth inhibition of Homo sapiens (human) T47D cells at 10 uM after 48 hr by SRB assay; settings: read-out: GI

## O=C(c1cc2ccccc2[nH]1)N1CC(=O)N(C2CCCCC2)C(=O)C1
[1]
  inhibition of growth at 10 µM: 6%
[2]
  inhibition of growth at 10 µM: 40%
[3]
  inhibition of growth at 10 µM: 25%
[4]
  inhibition of growth at 10 µM: 30%
[5]
  inhibition of growth at 10 µM: 7%

## O=C(c1cc2ccccc2[nH]1)N1CC(=O)N(CCCn2ccnc2)C(=O)C1
[1]
  inhibition of growth at 10 µM: 0%
[2]
  inhibition of growth at 10 µM: 17%
[3]
  inhibition of growth at 10 µM: 34%
[4]
  inhibition of growth at 10 µM: 7%
[5]
  inhibition of growth at 10 µM: 0%

## O=C(c1cc2ccccc2[nH]1)N1CC(=O)N(Cc2ccccn2)C(=O)C1
[1]
  inhibition of growth at 10 µM: 19%
[2]
  inhibition of growth at 10 µM: 23%
[3]
  inhibition of growth at 10 µM: 34%
[4]
  inhibition of growth at 10 µM: 2%
[5]
  inhibition of growth at 10 µM: 20%

## O=C(c1cc2ccccc2[nH]1)N1CC(=O)N(Cc2cccnc2)C(=O)C1
[1]
  inhibition of growth at 10 µM: 4%
[2]
  inhibition of growth at 10 µM: 13%
[3]
  inhibition of growth at 10 µM: 17%
[4]
  inhibition of growth at 10 µM: 14%
[5]
  inhibition of growth at 10 µM: 12%

## O=C(c1cc2ccccc2[nH]1)N1CC(=O)N(Cc2ccncc2)C(=O)C1
[1]
  inhibition of growth at 10 µM: 5%
[2]
  inhibition of growth at 10 µM: 42%
[3]
  inhibition of growth at 10 µM: 20%
[4]
  inhibition of growth at 10 µM: 38%
[5]
  inhibition of growth at 10 µM: 21%

## O=C(c1cc2ccccc2[nH]1)N1CC(=O)N(CCN2CCOCC2)C(=O)C1
[1]
  inhibition of growth at 10 µM: 8%
[2]
  inhibition of growth at 10 µM: 18%
[3]
  inhibition of growth at 10 µM: 3%
[4]
  inhibition of growth at 10 µM: 7%
[5]
  inhibition of growth at 10 µM: 16%

## O=C(c1cc2ccccc2[nH]1)N1CC(=O)N(Cc2cccs2)C(=O)C1
[1]
  inhibition of growth at 10 µM: 0%
[2]
  inhibition of growth at 10 µM: 24%
[3]
  inhibition of growth at 10 µM: 45%
[4]
  inhibition of growth at 10 µM: 15%
[5]
  inhibition of growth at 10 µM: 6%

## O=C(c1cc2ccccc2[nH]1)N1CC(=O)N(CCc2cccs2)C(=O)C1
[1]
  inhibition of growth at 10 µM: 14%
[2]
  inhibition of growth at 10 µM: 11%
[3]
  inhibition of growth at 10 µM: 19%
[4]
  inhibition of growth at 10 µM: 4%
[5]
  inhibition of growth at 10 µM: 9%

## O=C(c1cc2ccccc2[nH]1)N1CC(=O)N(Cc2ccco2)C(=O)C1
[1]
  inhibition of growth at 10 µM: 15%
[2]
  inhibition of growth at 10 µM: 23%
[3]
  inhibition of growth at 10 µM: 36%
[4]
  inhibition of growth at 10 µM: 24%
[5]
  inhibition of growth at 10 µM: 21%

## O=C(c1cc2ccccc2[nH]1)N1CC(=O)N(CCN2CCCC2)C(=O)C1
[1]
  inhibition of growth at 10 µM: 31%
[2]
  inhibition of growth at 10 µM: 29%
[3]
  inhibition of growth at 10 µM: 30%
[4]
  inhibition of growth at 10 µM: 17%
[5]
  inhibition of growth at 10 µM: 16%

## O=C1CCCN1CCCN1C(=O)CN(C(=O)c2cc3ccccc3[nH]2)CC1=O
[1]
  inhibition of growth at 10 µM: 8%
[2]
  inhibition of growth at 10 µM: 8%
[3]
  inhibition of growth at 10 µM: 11%
[4]
  inhibition of growth at 10 µM: 27%
[5]
  inhibition of growth at 10 µM: 14%

## O=C1CNCC(=O)N1C1CCCCC1
[1]
  inhibition of growth at 10 µM: 11%
[2]
  inhibition of growth at 10 µM: 24%
[3]
  inhibition of growth at 10 µM: 38%
[4]
  inhibition of growth at 10 µM: 7%
[5]
  inhibition of growth at 10 µM: 15%

## O=C1CNCC(=O)N1CCCn1ccnc1
[1]
  inhibition of growth at 10 µM: 8%
[2]
  inhibition of growth at 10 µM: 23%
[3]
  inhibition of growth at 10 µM: 13%
[4]
  inhibition of growth at 10 µM: 32%
[5]
  inhibition of growth at 10 µM: 8%

## O=C1CNCC(=O)N1Cc1ccccn1
[1]
  inhibition of growth at 10 µM: 8%
[2]
  inhibition of growth at 10 µM: 17%
[3]
  inhibition of growth at 10 µM: 31%
[4]
  inhibition of growth at 10 µM: 1%
[5]
  inhibition of growth at 10 µM: 16%

## O=C1CNCC(=O)N1Cc1cccnc1
[1]
  inhibition of growth at 10 µM: 4%
[2]
  inhibition of growth at 10 µM: 20%
[3]
  inhibition of growth at 10 µM: 21%
[4]
  inhibition of growth at 10 µM: 20%
[5]
  inhibition of growth at 10 µM: 8%

## O=C1CNCC(=O)N1Cc1ccncc1
[1]
  inhibition of growth at 10 µM: 8%
[2]
  inhibition of growth at 10 µM: 27%
[3]
  inhibition of growth at 10 µM: 25%
[4]
  inhibition of growth at 10 µM: 33%
[5]
  inhibition of growth at 10 µM: 4%

## O=C1CNCC(=O)N1CCN1CCOCC1
[1]
  inhibition of growth at 10 µM: 9%
[2]
  inhibition of growth at 10 µM: 37%
[3]
  inhibition of growth at 10 µM: 38%
[4]
  inhibition of growth at 10 µM: 4%
[5]
  inhibition of growth at 10 µM: 1%

## O=C1CNCC(=O)N1Cc1cccs1
[1]
  inhibition of growth at 10 µM: 15%
[2]
  inhibition of growth at 10 µM: 18%
[3]
  inhibition of growth at 10 µM: 29%
[4]
  inhibition of growth at 10 µM: 4%
[5]
  inhibition of growth at 10 µM: 8%

## O=C1CNCC(=O)N1CCc1cccs1
[1]
  inhibition of growth at 10 µM: 21%
[2]
  inhibition of growth at 10 µM: 15%
[3]
  inhibition of growth at 10 µM: 24%
[4]
  inhibition of growth at 10 µM: 25%
[5]
  inhibition of growth at 10 µM: 16%

## O=C1CNCC(=O)N1Cc1ccco1
[1]
  inhibition of growth at 10 µM: 7%
[2]
  inhibition of growth at 10 µM: 26%
[3]
  inhibition of growth at 10 µM: 21%
[4]
  inhibition of growth at 10 µM: 30%
[5]
  inhibition of growth at 10 µM: 4%

## O=C1CNCC(=O)N1CCN1CCCC1
[1]
  inhibition of growth at 10 µM: 0%
[2]
  inhibition of growth at 10 µM: 26%
[3]
  inhibition of growth at 10 µM: 18%
[4]
  inhibition of growth at 10 µM: 49%
[5]
  inhibition of growth at 10 µM: 1%

## O=C1CCCN1CCCN1C(=O)CNCC1=O
[1]
  inhibition of growth at 10 µM: 21%
[2]
  inhibition of growth at 10 µM: 25%
[3]
  inhibition of growth at 10 µM: 40%
[4]
  inhibition of growth at 10 µM: 19%
[5]
  inhibition of growth at 10 µM: 21%

## C[C@@H]1C[C@@H]([C@H](O)CC2CC(=O)NC(=O)C2)C(=O)[C@@H](C)C1 [CYCLOHEXIMIDE]
[1]
  inhibition of growth at 10 µM: 15%
[2]
  inhibition of growth at 10 µM: 34%
[3]
  inhibition of growth at 10 µM: 26%
[4]
  inhibition of growth at 10 µM: 16%
[5]
  inhibition of growth at 10 µM: 11%

## O=P1(N(CCCl)CCCl)NCCCO1 (stereo not given) [CYCLOPHOSPHAMIDE ANHYDROUS]
[1]
  inhibition of growth at 10 µM: 11%
[2]
  inhibition of growth at 10 µM: 12%
[3]
  inhibition of growth at 10 µM: 18%
[4]
  inhibition of growth at 10 µM: 12%
[5]
  inhibition of growth at 10 µM: 26%

## O=c1[nH]cc(F)c(=O)[nH]1 [FLUOROURACIL]
[1]
  inhibition of growth at 10 µM: 24%
[2]
  inhibition of growth at 10 µM: 22%
[3]
  inhibition of growth at 10 µM: 18%
[4]
  inhibition of growth at 10 µM: 19%
[5]
  inhibition of growth at 10 µM: 15%
